Activity calls are given as the source filed them. The calls are words filed in the database; no cut-off is given here.
Columns and labels:
HUVEC [1] = assay: Antiangiogenic activity in HUVEC assessed as reduction in number of polygons formation after 16 hrs by matrigel-based microscopic analysis; conditions: Homo sapiens
HUVEC [2] = assay: Cytotoxicity against HUVEC cells upto 30 uM after 16 hrs by MTT assay; assay type: cell-based; conditions: human
Ephrin type-B receptor 4 = target: T1, Ephrin type-B receptor 4 (Mus musculus, UniProt P54761); assay: Displacement of biotinylated ephrin-B1-Fc from mouse EphB4 Fc preincubated for 1 hr followed by ephrin-B1-FC addition and measured after 4 hrs by ELISA
T1 sequence (P54761 whole entry): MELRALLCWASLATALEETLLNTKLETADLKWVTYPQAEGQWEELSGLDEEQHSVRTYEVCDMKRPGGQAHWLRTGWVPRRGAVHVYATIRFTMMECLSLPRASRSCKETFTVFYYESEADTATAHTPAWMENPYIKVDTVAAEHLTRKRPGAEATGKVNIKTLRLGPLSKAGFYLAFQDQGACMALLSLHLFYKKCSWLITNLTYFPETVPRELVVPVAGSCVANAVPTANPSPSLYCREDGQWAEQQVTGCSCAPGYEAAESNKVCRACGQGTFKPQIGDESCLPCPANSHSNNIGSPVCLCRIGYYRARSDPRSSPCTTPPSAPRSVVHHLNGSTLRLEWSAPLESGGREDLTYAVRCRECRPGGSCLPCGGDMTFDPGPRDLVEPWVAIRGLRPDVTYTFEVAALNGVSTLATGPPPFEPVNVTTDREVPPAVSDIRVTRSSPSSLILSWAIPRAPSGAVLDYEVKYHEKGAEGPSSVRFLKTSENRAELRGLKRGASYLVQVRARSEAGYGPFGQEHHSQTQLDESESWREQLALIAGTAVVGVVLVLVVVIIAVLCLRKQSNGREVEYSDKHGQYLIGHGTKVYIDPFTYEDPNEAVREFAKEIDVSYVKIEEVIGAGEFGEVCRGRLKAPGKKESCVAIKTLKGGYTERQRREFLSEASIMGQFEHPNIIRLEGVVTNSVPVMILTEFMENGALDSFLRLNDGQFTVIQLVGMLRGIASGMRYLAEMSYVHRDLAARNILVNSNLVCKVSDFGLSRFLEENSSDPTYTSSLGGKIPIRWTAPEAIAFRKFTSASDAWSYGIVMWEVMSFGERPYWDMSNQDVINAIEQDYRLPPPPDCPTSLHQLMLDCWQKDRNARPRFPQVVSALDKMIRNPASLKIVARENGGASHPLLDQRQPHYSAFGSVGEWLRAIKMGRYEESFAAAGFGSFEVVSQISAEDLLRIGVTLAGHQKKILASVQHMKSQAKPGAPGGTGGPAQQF

Ephrin type-B receptor 1 = target: T2, Ephrin type-B receptor 1 (Rattus norvegicus, UniProt P09759); assay: Displacement of biotinylated ephrin-B1-Fc from rat EphB1 Fc preincubated for 1 hr followed by ephrin-B1-FC addition and measured after 4 hrs by ELISA
T2 sequence (P09759 whole entry): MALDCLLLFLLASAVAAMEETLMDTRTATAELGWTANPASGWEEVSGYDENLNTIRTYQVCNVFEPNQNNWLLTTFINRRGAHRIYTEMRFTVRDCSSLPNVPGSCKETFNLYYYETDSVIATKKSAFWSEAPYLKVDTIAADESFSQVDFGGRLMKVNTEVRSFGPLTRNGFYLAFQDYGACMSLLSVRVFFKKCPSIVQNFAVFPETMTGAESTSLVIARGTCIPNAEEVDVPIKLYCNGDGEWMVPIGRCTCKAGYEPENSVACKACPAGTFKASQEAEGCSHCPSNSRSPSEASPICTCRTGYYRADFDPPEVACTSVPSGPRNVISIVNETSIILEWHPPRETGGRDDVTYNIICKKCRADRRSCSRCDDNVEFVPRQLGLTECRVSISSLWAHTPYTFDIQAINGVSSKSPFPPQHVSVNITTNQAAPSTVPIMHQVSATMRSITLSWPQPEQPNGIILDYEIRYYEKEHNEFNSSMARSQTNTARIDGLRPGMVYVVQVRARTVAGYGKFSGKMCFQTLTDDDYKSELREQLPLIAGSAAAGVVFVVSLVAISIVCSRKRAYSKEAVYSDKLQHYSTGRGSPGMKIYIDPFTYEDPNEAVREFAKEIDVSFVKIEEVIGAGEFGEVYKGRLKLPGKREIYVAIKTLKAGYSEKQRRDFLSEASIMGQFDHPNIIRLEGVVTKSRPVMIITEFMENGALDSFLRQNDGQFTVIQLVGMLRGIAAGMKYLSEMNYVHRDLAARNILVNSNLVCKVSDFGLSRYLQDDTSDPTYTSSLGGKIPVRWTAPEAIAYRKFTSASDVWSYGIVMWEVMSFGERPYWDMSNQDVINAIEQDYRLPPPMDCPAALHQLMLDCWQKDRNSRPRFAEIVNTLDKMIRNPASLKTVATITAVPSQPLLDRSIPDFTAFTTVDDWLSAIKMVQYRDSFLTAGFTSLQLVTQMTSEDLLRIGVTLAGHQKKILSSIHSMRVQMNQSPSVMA

Chorioallantoic membrane = assay: Antiangiogenic activity in Leghorn chicken fertilized egg chorioallantoic membrane assessed as reduction in unstimulated neovascularization at 10 uM measured after 3 days by CAM assay; assay type: functional, tissue-based; conditions: Gallus gallus, time 3.0 day

- IC50 (Ephrin type-B receptor 4): > 30 µM
- IC50 (Ephrin type-B receptor 1): > 30 µM
Compound: CCNC(=O)O[C@@H]1CC[C@@]2(C)[C@H](CC[C@@H]3[C@@H]2CC[C@]2(C)[C@@H]([C@H](C)CCC(=O)N[C@H](CC(=O)O)Cc4c[nH]c5ccccc45)CC[C@@H]32)C1
- IC50 (HUVEC [1]): 3 µM
- Activity (HUVEC [2]): Non-Toxic
- Activity (Chorioallantoic membrane): inactive
